# Molecular target: Tyrosine-protein kinase BTK (Homo sapiens, UniProt Q06187)
# Assay: Enzymatic Activity Assay: A Caliper-based kinase assay (Caliper Life Sciences, Hopkinton, Mass.) was used to measure inhibition of BTK kinase activity of a compound of the present disclosure. Serial dilutions of test compounds were incubated with human recombinant BTK (0.5 nM), ATP (16 μM) and a phosphoacceptor peptide substrate FAM-GEEPLYWSFPAKKK-NH2 (1 μM) at room temperature for 3 h. The reaction was then terminated with EDTA, final concentration 20 mM and the phosphorylated reaction product was quantified on a Caliper Desktop Profiler (Caliper LabChip 3000). Percent inhibition was calculated for each compound dilution and the concentration that produced 50% inhibition was calculated.
# Sequence of Tyrosine-protein kinase BTK (Q06187 whole entry): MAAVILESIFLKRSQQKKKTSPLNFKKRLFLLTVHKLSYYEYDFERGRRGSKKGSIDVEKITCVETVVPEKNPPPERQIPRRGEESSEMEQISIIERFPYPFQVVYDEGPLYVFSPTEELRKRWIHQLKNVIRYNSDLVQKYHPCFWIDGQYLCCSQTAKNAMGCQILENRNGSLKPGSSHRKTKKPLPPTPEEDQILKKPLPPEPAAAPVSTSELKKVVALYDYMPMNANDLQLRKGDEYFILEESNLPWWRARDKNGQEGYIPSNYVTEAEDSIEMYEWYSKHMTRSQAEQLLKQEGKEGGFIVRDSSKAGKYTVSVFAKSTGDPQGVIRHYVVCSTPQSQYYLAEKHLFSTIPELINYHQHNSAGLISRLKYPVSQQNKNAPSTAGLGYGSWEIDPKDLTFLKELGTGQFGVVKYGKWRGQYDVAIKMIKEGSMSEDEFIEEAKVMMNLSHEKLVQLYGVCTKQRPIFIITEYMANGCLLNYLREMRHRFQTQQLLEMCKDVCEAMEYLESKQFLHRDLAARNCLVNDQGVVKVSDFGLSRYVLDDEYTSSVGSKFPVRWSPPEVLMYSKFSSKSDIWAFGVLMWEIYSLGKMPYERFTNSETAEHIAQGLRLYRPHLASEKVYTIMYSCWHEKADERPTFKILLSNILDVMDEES
row,Structure (SMILES),IC50
1,CN1CCN(C(C)(C)C=C(C#N)C(=O)N2CCC[C@@H](c3nc(-c4ccc(Oc5ccccc5)cc4F)c4c(N)nccn34)C2)CC1=O,2.6 nM
2,CC(C)(C=C(C#N)C(=O)N1CCC[C@@H](c2nc(-c3ccc(Oc4ccccc4)cc3F)c3c(N)nccn23)C1)N1CCN(C2(C)COC2)CC1,2.4 nM
3,Cc1cc(-c2nn([C@@H]3CCCN(C(=O)C(C#N)=CC(C)(C)N4CCN(C5COC5)CC4)C3)c3ccnc(N)c23)ccc1Oc1ccccc1,1.3 nM
4,CC(C)(C=C(C#N)C(=O)N1CCC[C@@H](n2nc(-c3ccc(C(=O)Nc4ccccn4)cc3)c3c(N)nccc32)C1)N1CCN(C2COC2)CC1,2.2 nM
5,CC(C)(C=C(C#N)C(=O)N1CCC[C@@H](n2nc(-c3ccc(Oc4ccccc4)cc3F)c3c(N)nccc32)C1)N1CCN(C2COC2)CC1,1.4 nM
6,CC(C)(C=C(C#N)C(=O)N1CCC[C@@H](n2nc(-c3ccc(Oc4ccccc4)cc3F)c3c(N)ncnc32)C1)N1CCN(C2(C)COC2)CC1,0.3 nM
7,CC(C)(C=C(C#N)C(=O)N1CCC[C@@H](n2nc(-c3ccc(Oc4ccccc4)cc3F)c3c(N)nccc32)C1)C1(C)CCN(C2COC2)CC1,45.7 nM
8,CC(C)(C=C(C#N)C(=O)N1CCC[C@@H](n2nc(-c3ccc(Oc4ccccc4)cc3F)c3c(N)nccc32)C1)N1CCN(C2(C)COC2)CC1,0.8 nM
9,CC(C)(C=C(C#N)C(=O)N1CCC[C@@H](n2nc(-c3ccc(Oc4ccccc4F)cc3)c3c(N)nccc32)C1)N1CCN(C2COC2)CC1,2.2 nM
